Experimental data reported in patent publication US7056947B2, “Aza-peptide epoxides” (Georgia Tech Research Corp., priority 2002, dated 2006).

Columns and labels:
Format in all cases: biochemical
papain = molecular target: T1, papain (Carica papaya, UniProt P00784); assay: Inhibition of papain, incubation method; settings: second-order rate constant, NI = no inhibition; for kinact/KI: pH 7.5, read-out: kobs/[I] papain
T1 sequence (P00784 134-345): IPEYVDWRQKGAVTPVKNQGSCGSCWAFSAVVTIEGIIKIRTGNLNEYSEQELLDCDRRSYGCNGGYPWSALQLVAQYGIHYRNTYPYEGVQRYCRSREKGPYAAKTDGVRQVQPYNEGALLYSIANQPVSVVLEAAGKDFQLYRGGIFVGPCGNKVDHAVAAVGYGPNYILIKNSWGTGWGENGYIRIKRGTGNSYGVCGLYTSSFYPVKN
Procedure: (§1) The release of 7-amino-4-methylcoumarin was monitored (λex=360 nm, λem=465 nm) using a Tecan Spectra Fluor microplate reader. Pseudo first-order inactivation rate constants were obtained from plots of In vt/vo versus time.
The incubation method was also used for papain. The inhibition incubation buffer for papain was 50 mM Hepes buffer at pH 7.5, containing 2.5 mM DTT and 2.5 mM EDTA. The assay used the substrate Z-Phe-Arg-pNA (53.7 μM) in the same buffer. The approximate concentration of papain added to the incubation buffer was 0.29 mg/mL. The release of p-nitroanilide was monitored at 405 nm with a Molecular Devices Thermomax microplate reader.

calpain = assay: Inhibition of calpain; settings: second-order rate constant; NI = no inhibition
cathepsin B = cathepsin B (Homo sapiens, UniProt P07858); assay: Inhibition of cathepsin B, incubation method; settings: second-order rate constant, NI = no inhibition; for kinact/KI: pH 6, read-out: kobs/[I] cathepsin B
From the text: as §1

SMILES | kinact/KI (papain) [M⁻¹ s⁻¹] | kobs/[I] calpain (calpain) [M⁻¹ s⁻¹] | kinact/KI (cathepsin B) [M⁻¹ s⁻¹] | kobs/[I] papain (papain) [M⁻¹ s⁻¹] | kobs/[I] cathepsin B (cathepsin B) [M⁻¹ s⁻¹]
CCOC(=O)[C@@H]1O[C@H]1C(=O)N(CCc1ccccc1)NC(=O)[C@H](CC(C)C)NC(C)=O (relative stereo) [Ac-Leu-AHph-trans-EP-COOEt, trans-3-(N^2-(N-Acetylleucyl)-N^1-phenylethylhydrazinocarbonyl)oxirane-2-carboxylic Acid Ethyl Ester] | 1.9 | 0.84 | 0.59 |  | 
CCOC(=O)[C@@H]1O[C@H]1C(=O)N(CC)NC(=O)C(CC(C)C)NC(=O)OCc1ccccc1 (relative stereo) [Cbz-Leu-AAbu-trans-EP-COOEt, trans-3-(N^2-(N-Benzyloxycarbonyleucyl)-N^1-ethylhydrazinocarbonyl)oxirane-2-carboxylic Acid Ethyl Ester] |  | 1.98 |  | 4.94 | 
CCOC(=O)[C@@H]1O[C@H]1C(=O)N(CC(C)C)NC(=O)[C@H](CC(C)C)NC(=O)[C@H](CC(C)C)NC(=O)OCc1ccccc1 (relative stereo) [Cbz-Leu-Leu-ALeu-trans-EP-COOEt, trans-3-(N^2-(N-Benzyloxycarbonylleucylleucyl)-N^1-isobutylhydrazinocarbonyl)oxirane-2-carboxylic Acid Ethyl Ester] | 34.8 | 2.65 |  |  | 
CCOC(=O)[C@@H]1O[C@H]1C(=O)N(CC(C)C)NC(=O)OCc1ccccc1 (relative stereo) [Cbz-ALeu-trans-EP-COOEt, trans-3-(N^2-(N-Benzyloxycarbonyl)-N^1-isobutylhydrazinocarbonyl)oxirane-2-carboxylic Acid Ethyl Ester] |  | 1.75 |  | 16.1 | 4.43
CCOC(=O)C1OC1C(=O)N(CCc1ccccc1)NC(C)=O (stereo not drawn) [Ac-AHph-trans-EP-COOEt, trans-3-(N^2-(N-Acetyl)-N^1-phenylethylhydrazinocarbonyl)oxirane-2-carboxylic Acid Ethyl Ester] |  | 1.29 |  | 26.88 | 40.62
CCOC(=O)[C@H]1O[C@@H]1C(=O)N(CC(C)C)NC(=O)C(CC(C)C)NC(=O)OCc1ccccc1 (stereo partly drawn) [Cbz-Leu-ALeu-(2S, 3S)-EP-COOEt, (2S,3S)-3-(N^2-(N-Benzyloxycarbonyleucyl)-N^1-isobutylhydrazinocarbonyl)oxirane-2-carboxylic Acid Ethyl Ester] |  | 8.58 |  | 10.53 | 1.8
CCOC(=O)[C@@H]1O[C@H]1C(=O)N(CCc1ccccc1)NC(=O)[C@H](CC(C)C)NC(=O)OCc1ccccc1 [Cbz-Leu-AHph-(2R, 3R)-EP-COOEt, (2R,3R)-3-(N^2-(N-Benzyloxycarbonyleucyl)-N^1-phenylethylhydrazinocarbonyl)oxirane-2-carboxylic Acid Ethyl Ester] |  | 2.12 |  | 2.16 | 
CCOC(=O)[C@@H]1O[C@H]1C(=O)N(CC(C)C)NC(=O)[C@H](CC(C)C)NC(C)=O (relative stereo) [Ac-Leu-ALeu-trans-EP-COOEt, trans-3-(N^2-(N-Acetylleucyl)-N^1-isobutylhydrazinocarbonyl)oxirane-2-carboxylic Acid Ethyl Ester] | 2.09 | 1.48 | 8 |  | 
CC(C)C[C@H](NC(=O)OCc1ccccc1)C(=O)N[C@@H](CC(C)C)C(=O)NN(CC(C)C)C(=O)[C@H]1O[C@@H]1C(=O)O [Cbz-Leu-Leu-ALeu-(2S, 3S)-EP-COOH, (2S,3S)-3-(N^2-(N-Benzyloxycarbonylleucylleucyl)-N^1-isobutylhydrazinocarbonyl)oxirane-2-carboxylic Acid] | 6.93 | 0.82 | 7.02 |  | 
CCOC(=O)[C@@H]1O[C@H]1C(=O)N(CC(C)C)NC(=O)[C@H](CC(C)C)NC(=O)OCc1ccccc1 (relative stereo) [Cbz-Leu-ALeu-trans-EP-COOEt, trans-3-(N^2-(N-Benzyloxycarbonyleucyl)-N^1-isobutylhydrazinocarbonyl)oxirane-2-carboxylic Acid Ethyl Ester] |  | 3.09 |  | 6.37 | 23.32
CCOC(=O)[C@H]1O[C@@H]1C(=O)N(CCc1ccccc1)NC(=O)C(CC(C)C)NC(=O)OCc1ccccc1 (stereo partly drawn) [Cbz-Leu-AHph-(2S, 3S)-EP-COOEt, (2S,3S)-3-(N^2-(N-Benzyloxycarbonyleucyl)-N^1-phenylethylhydrazinocarbonyl)oxirane-2-carboxylic Acid Ethyl Ester] |  | 2.28 |  | 5.68 | 0.67
CCN(NC(=O)[C@H](CC(C)C)NC(=O)OCc1ccccc1)C(=O)[C@@H]1O[C@H]1C(=O)O (relative stereo) [Cbz-Leu-AAbu-trans-EP-COOH, trans-3-(N-(N-Benzyloxycarbonyleucyl)-N^1-ethylhydrazinocarbonyl)oxirane-2-carboxylic Acid] |  | 0.57 |  | 1.47 | 
CCOC(=O)[C@@H]1O[C@@H]1C(=O)N(CCc1ccccc1)NC(=O)[C@H](CC(C)C)NC(=O)OCc1ccccc1 (relative stereo) [Cbz-Leu-AHph-cis-EP-COOEt, cis-3-(N-(N-Benzyloxycarbonyleucyl)-N^1-phenylethylhydrazinocarbonyl)oxirane-2-carboxylic Acid Ethyl Ester] |  | 1.09 |  | 1.03 | 
CCOC(=O)[C@@H]1O[C@H]1C(=O)N(CC(C)C)NC(=O)C(CC(C)C)NC(=O)OCc1ccccc1 (stereo partly drawn) [Cbz-Leu-ALeu-(2R, 3R)-EP-COOEt, (2R,3R)-3-(N^2-(N-Benzyloxycarbonyleucyl)-N^1-isobutylhydrazinocarbonyl)oxirane-2-carboxylic Acid Ethyl Ester] |  | 1.45 |  | 6.70 | 
CCOC(=O)[C@@H]1O[C@@H]1C(=O)N(CC(C)C)NC(=O)C(CC(C)C)NC(=O)OCc1ccccc1 (relative stereo) [Cbz-Leu-ALeu-cis-EP-COOEt, cis-3-(N^2-(N-Benzyloxycarbonyleucyl)-N^1-isobutylhydrazinocarbonyl)oxirane-2-carboxylic Acid Ethyl Ester] |  | 1.88 |  | 0.38 | 6.27
CCOC(=O)[C@H]1O[C@@H]1C(=O)N(CC(C)C)NC(=O)[C@H](CC(C)C)NC(=O)[C@H](CC(C)C)NC(=O)OCc1ccccc1 [Cbz-Leu-Leu-ALeu-(2S, 3S)-EP-COOEt, (2S,3S)-3-(N^2-(N-Benzyloxycarbonylleucylleucyl)-N^1-isobutylhydrazinocarbonyl)oxirane-2-carboxylic Acid Ethyl Ester] | 10.5 | 2.48 | 0.98 |  | 
CCOC(=O)[C@@H]1O[C@H]1C(=O)N(CCc1ccccc1)NC(=O)OCc1ccccc1 (relative stereo) [Cbz-AHph-trans-EP-COOEt, trans-3-(N^2-(N-Benzyloxycarbonyl)-N^1-phenylethylhydrazinocarbonyl)oxirane-2-carboxylic Acid Ethyl Ester] |  | 2.44 |  | 18.8 | 8.91
